“Also recorded” adds a separate entry of the source.

What all share (format): cell-based, human
In assay [1] the test system is LAPC4 prostate cancer cells. Description: CyQUANT cell proliferation assay, LAPC4. Conditions: 10 to 50 μM, 4 days. The protocol: (§1) Cell culture and treatment protocols: The LNCaP prostate cancer cells used in these studies were acquired from American Type Culture Collection (Manassas, Va.). All cell lines were maintained in Dulbecco's modified Eagle's medium (DMEM; Invitrogen, Carlsbad, Calif.) containing 5% heat-inactivated fetal calf serum (FCS; Sigma, St. Louis, Mo.) with streptomycin-penicillin antibiotics (designated DMEM/FCS) in a 5% CO2 incubator at 37° C. LAPC4 prostate cancer cells adapted to growth in DMEM and 5% FCS were acquired from George Wilding (University of Wisconsin Paul P. Carbone Comprehensive Cancer Center). For experiments evaluating androgenic responses, cells were cultured in DMEM containing 4% charcoal-stripped FCS and 1% unstripped FCS (designated DMEM/CSS). […]
(§2) Cell proliferation and viability assays: Cell numbers were determined using a hemacytometer. Relative cell growth changes were determined using cells plated in 96-well tissue culture plates using the CyQUANT NF Cell Proliferation Assay Kit (Invitrogen) according to manufacturer's instructions. Cell viability was measured using trypan blue exclusion and quantified using light microscopy and hemacytometry. Additionally, cell viability was measured by propidium iodide exclusion using flow cytometry (FACScan; BD Biosciences, San Jose, Calif.) after VE and ATQ treatment.

In assay [2] the test system is PC3 prostate cancer cell line. Kind of assay: Growth of androgen-independent PC3 cells. To be noted: 4 days, data not shown. The protocol:
as §2

The subject of the next assay is LNCaP cells. Kind of assay: LNCaP viability by propidium iodide exclusion and flow cytometry. Conditions: 30 μM, 4 days. The protocol:
as §1, §2
On the technique in general: Flow cytometry measures light scatter and fluorescence of single cells or particles in a stream.

Assay [3] has as its system androgen-sensitive MMTV promoter. Kind of assay: Promoter activation assay (MMTV/luciferase) in LNCaP. Conditions: 30 μM, 48 hours. The procedure: Promoter activation assay: LNCaP and LAPC4 prostate carcinoma cell lines were cultured in 12- or 24-well cell culture plates (Costar) in DMEM/CSS 2 to 3 days before transfection. Androgen-induced transcriptional activation was determined using a reporter construct with an MMTV promoter that regulates the expression of luciferase (Thompson T A et al., In Vitro Cell. Dev. Biol. 1993, 29A:165-170). LNCaP cells were transfected using the calcium phosphate precipitation method with an MMTV/luciferase plasmid. LAPC4 cells were transfected with an MMTV/luciferase plasmid using the FuGENE 6 Transfection Reagent (Roche Applied Science), according to the manufacturer's instructions. Twenty-four hours after transfection, cells were treated with R1881 with or without test reagents at the specified concentrations. Cell extracts were acquired 24 to 48 hours after treatment in 100 μL of Cell Culture Lysis Reagent (Promega, Madison, Wis.). Luciferase activity was measured using the Luciferase Assay Substrate (Promega, Madison, Wis.) according to instructions and read on a TD-20/20 Luminometer (Turner Designs, Sunnyvale, Calif.).

In a further assay the test system is PSA. Description: Prostate specific antigen analysis, LNCaP medium. To be noted: for R1881-induced PSA release / PSA levels in medium: 10 to 40 μM. The procedure:
Prostate specific antigen analysis: LNCaP cells were cultured in 96-well plates (Costar) at 5,000 cells per well in DMEM/CSS 1 day before treatment. Forty-eight hours after treatment, media levels of PSA released from LNCaP cells were measured using a PSA Enzyme Immunoassay Test Kit (BioCheck, Inc., Foster City, Calif.) according to manufacturer's instructions supplied with the kit. PSA levels were normalized to cell numbers as determined using the CyQUANT NF Cell Proliferation Assay Kit (Invitrogen), as described previously.

The subject of assay [4] is AR mRNA. Description: AR mRNA expression by qPCR, LNCaP. Conditions: 4 days. The procedure: (§3) Messenger RNA expression analysis: Total RNA was extracted from cells using TRIzol Reagent (Invitrogen, Carlsbad, Calif.) and cDNA was prepared from total RNA using the High Capacity cDNA Reverse Transcription Kit (Applied Biosystems, Foster City, Calif.). Quantititive PCR was performed for AR expression using an Applied Biosystems 7900HT Fast Real-Time PCR System (Carlsbad, Calif.) and QuantiTect Primers Assays (Qiagen Inc., Valencia, Calif.) for AR and GAPDH mRNA.
(In qPCR the cycle at which signal appears reflects the starting amount.)

Assay [5] has as its system AR mRNA. Description: AR mRNA expression by qPCR, LAPC4. Conditions: for AR mRNA levels (qPCR): LAPC4, 4 days. The procedure:
as §3

Assay [6] deals with LNCaP prostate cancer cells. Description: CyQUANT cell proliferation assay, LNCaP. To be noted: 10 to 50 μM, 4 days. The procedure: as §1, §2
In assay [7] the test system is AR protein. Kind of assay: Immunoblot analysis of AR protein, LNCaP. To be noted: 4 days. The protocol:
(§4) Immunoblot analysis: LNCaP or LAPC4 prostate cancer cells were plated at a density of 1×10^6 cells per 100 mm cell culture plate in 10 ml of DMEM/CSS and maintained in incubators at 37° C. in 5% CO2. […] Cell extracts were stored at −80° C. until analysis. Total protein (25 μg) from cell extracts were electrophoresed on 7.5% SDS-polyacrylamide gels and transferred to Immobilon-P membranes (Millipore Corp., Bedford, Mass.) using a GENIE wet transfer system (Idea Scientific, Minneapolis, Minn.). Membranes were blocked in Tris-buffered saline containing 5% nonfat dry milk and then incubated with mouse anti-AR (441) monoclonal antibody (Santa Cruz Biotechnology, Santa Cruz, Calif.) or mouse anti-actin antibody (A5441; Sigma). After washing, membranes were incubated with a secondary horseradish peroxidase-conjugated goat anti-mouse IgG (Biomeda, Foster City, Calif.) and analyzed using Western Lightening Chemiluminescence Reagent Plus (Boston, Mass.) on a Kodak Image Station 4000MM (Rochester, N.Y.). Band intensities were determined using Kodak Molecular Imaging Software.

Assay [8] relates to AR protein. Description: Immunoblot analysis of AR protein, LAPC4. The protocol: as §4
For orientation: Immunoblotting shows a protein as a band on a membrane.

Regarding `Cc1c(C)c2c(c(C)c1O)CCC(C)(CCCC(C)CCCC(C)CCCC(C)C)O2` (racemic) [VE, dl-α-tocopherol, reference compound], the “LAPC4 cell growth (CyQUANT)” value in assay [1] is listed as “modest, but significant, decrease; also recorded: decreased slightly; also recorded: much less effective”. In addition, in [2], the PC3 cell growth result is given as “neither ATQ nor VE decreased the growth”. Also, the Cell viability result in the assay with LNCaP cells is recorded as “did not affect”. Moreover, the “Androgen-induced (R1881) MMTV promoter luciferase activity” value in assay [3] was “significantly increased”. Further, the “R1881-induced PSA release / PSA levels in medium” value in the assay with PSA is on record as “did not affect; also recorded: remained unchanged”. In addition, the “AR mRNA levels (qPCR)” value with AR mRNA [4] and with AR mRNA [5] was “did not affect” throughout.
In the case of `CC1=C(C)C(=O)C(CC[C@](C)(O)CCC[C@H](C)CCC[C@H](C)CCCC(C)C)=C(C)C1=O` [ATQ, α-tocopherylquinone], the “LNCaP cell growth (relative growth, CyQUANT)” value in [6] is “dose-dependent decrease; also recorded: significantly decreased”. Also, in assay [1], the “LAPC4 cell growth (CyQUANT)” value was “dose-dependent decrease; also recorded: significantly decreased”. Also, in [2], the PC3 cell growth entry is “neither ATQ nor VE decreased the growth”. In addition, the Cell viability entry in the assay on LNCaP cells is recorded as “significantly decreased”. The “Androgen-induced (R1881) MMTV promoter luciferase activity” value in assay [3] is “inhibit; also recorded: significantly reduced”. In addition, in the assay on PSA (10 μM), the “reduction in R1881-induced PSA release compared to untreated control cells” value amounted to 50%. In the assay with PSA (40 μM), the “decrease in PSA release compared to untreated controls” value is 4 fold. Moreover, the “R1881-induced PSA release / PSA levels in medium” value with PSA is recorded as “significantly reduced; also recorded: inhibited”. Moreover, the “reduction in AR protein levels” value in the assay with AR protein [7] (30 μM) is on record as 4 fold; in the assay on AR protein [8] (LAPC4, 25 μM, 4 days), 4 fold. The AR protein levels result is “decreased” in the assay on AR protein [7] and “decreased” with AR protein [8] (LAPC4, 4 days). For the same compound, the “decrease in AR mRNA levels” value came out at 2 fold with AR mRNA [4] (30 μM) and 2 fold with AR mRNA [5] (LAPC4, 30 μM, 4 days). In addition, the “AR mRNA levels (qPCR)” value with AR mRNA [4] and in the assay with AR mRNA [5] was “reduced levels” in each case.

The record behind these values is patent publication US20080132568A1, “COMPOUNDS WITH ANTI-ANDROGENIC ACTIVITY AND THE USE THEREOF” (priority 2006, published 2008).
